Literature values as cited in patent US20130115246A1 (Lupin Atlantis Holdings, S.A., priority 2011, published 2013).

Details: in vivo

elimination half-life: about 20 hours
SMILES: CC(C)(Oc1ccc(C(=O)c2ccc(Cl)cc2)cc1)C(=O)O [Fenofibric acid]
